{
  "source": "ChEMBL document CHEMBL1817542",
  "about": "“Aromatic phosphonates inhibit the lysophospholipase D activity of autotaxin” (Bioorg Med Chem Lett, 2011)",
  "key": {"[1]": {"biological_target": "T1, Autotaxin (Homo sapiens, UniProt Q13822)", "assay": "Inhibition of human recombinant ATX lysophospholipase activity expressed in insect sf9 cells using FS-3 fluorogenic substrate preincubated for 10 mins measured after 5 and 25 mins by fluorometric analysis"}, "[2]": {"assay": "Aqueous solubility of the compound", "type": "physicochemical", "settings": "buffer"}, "[3]": {"biological_target": "T1, Autotaxin", "assay": "Inhibition of human recombinant ATX lysophospholipase activity expressed in insect sf9 cells using FS-3 fluorogenic substrate at 10 uM preincubated for 10 mins measured after 5 and 25 mins by fluorometric analysis"}},
  "note": "Active and inactive are the calls of the source. The calls are words filed in the database; no cut-off is given here.",
  "data": [
    {"smiles": "CCCCCCCCCC(=O)Nc1ccc(C(O)P(=O)(O)O)cc1.NC1CCCCC1", "note": "(stereo not given)", "values": [
      {"measurement": "Ki", "setting": "[1]", "value": 0.0242, "unit": "µM"},
      {"measurement": "solubility", "setting": "[2]; read-out: solubility", "value": 4, "unit": "mg/mL"}
    ]},
    {"smiles": "CCCCCCCCCC(=O)Nc1ccc(CP(=O)(O)O)cc1.NC1CCCCC1", "values": [
      {"measurement": "Ki", "setting": "[1]", "value": 0.018, "unit": "µM"}
    ]},
    {"smiles": "CCCCCCC(=O)Nc1ccc(C(F)P(=O)(O)O)cc1.NC1CCCCC1", "note": "(stereo not given)", "values": [
      {"measurement": "Ki", "setting": "[1]", "value": 0.834, "unit": "µM"}
    ]},
    {"smiles": "CCCCCCCCCCCCCC(=O)Nc1ccc(C(O)P(=O)(O)O)cc1.NC1CCCCC1", "note": "(stereo not given)", "values": [
      {"measurement": "Ki", "setting": "[1]", "value": 0.024, "unit": "µM"}
    ]},
    {"smiles": "CCCCCCCCCC(=O)Nc1ccc(C(F)P(=O)(O)O)cc1.NC1CCCCC1", "note": "(stereo not given)", "values": [
      {"measurement": "Ki", "setting": "[1]", "value": 0.072, "unit": "µM"}
    ]},
    {"smiles": "CCCCCCCCCCCCCC(=O)Nc1ccc(C(F)P(=O)(O)O)cc1.NC1CCCCC1", "note": "(stereo not given)", "values": [
      {"measurement": "Ki", "setting": "[1]", "value": 0.0061, "unit": "µM"}
    ]},
    {"smiles": "COCCOCCOCCC(=O)Nc1ccc(CP(=O)(O)O)cc1.NC1CCCCC1", "values": [
      {"measurement": "inhibition", "setting": "[3]", "value": "inactive"}
    ]},
    {"smiles": "CCCCCCCCCCCCCC(=O)Nc1ccc(CP(=O)(O)O)cc1.NC1CCCCC1", "values": [
      {"measurement": "Ki", "setting": "[1]", "value": 0.009, "unit": "µM"},
      {"measurement": "solubility", "setting": "[2]; read-out: solubility", "value": 1, "unit": "mg/mL"}
    ]},
    {"smiles": "CCOP(=O)(Cc1ccc(N)cc1)OCC", "values": [
      {"measurement": "inhibition", "setting": "[3]", "value": "inactive"},
      {"measurement": "solubility", "setting": "[2]", "value": "soluble"}
    ]},
    {"smiles": "CCCCCCC(=O)Nc1ccc(CP(=O)(O)O)cc1.NC1CCCCC1", "values": [
      {"measurement": "Ki", "setting": "[1]", "value": 0.512, "unit": "µM"}
    ]},
    {"smiles": "CCCCCCC(=O)Nc1ccc(C(O)P(=O)(O)O)cc1.NC1CCCCC1", "note": "(stereo not given)", "values": [
      {"measurement": "Ki", "setting": "[1]", "value": 1.01, "unit": "µM"}
    ]},
    {"smiles": "CCCCCCCCCCCCCC(=O)Nc1ccc(C(Br)P(=O)(O)O)cc1.NC1CCCCC1", "note": "(stereo not given)", "values": [
      {"measurement": "Ki", "setting": "[1]", "value": 0.0081, "unit": "µM"}
    ]}
  ]
}
